Reference: US3985779A, “M-phenoxyphenyl propionic acid derivatives and preparation thereof” (Eisai Co., Ltd., priority 1973, dated 1976)

Key:
[1] = system: ARRS-induced edema; assay: Inhibitory activity on anti-rat-rabbit serum (ARRS)-induced edema in rats (Experiment D); assay type: in vivo
Description: Inhibitory activity on anti-rat-rabbit serum (ARRS)-induced edema in rats Similar Experiments was carried out by using ARRS as irritant substance.

[2] = system: Carrageenin-induced edema; assay: Inhibitory activity on Carrageenin-induced Edema in rats (Experiment A); assay type: in vivo, rats (male Wistar); conditions: 3 hours after Carrageenin
Description: Inhibitory activity on Carrageenin-induced Edema in rats
Carrageenin was used as the agent for inducing edema and 5 male rats of Wistar strain having body weight of about 150 grs. after fasting for 16-17 hours were used as test animals. The inhibitory activity of the test compounds were determined with the paw edema method in accordance with Winter C. A. et al; Proc. Soc. Exp. Biol. Med. 111, 544 (1962).
The compounds were suspended in an aqueous solution of gum arabic and the same were orally administered to the rats at 1 hour before the injection of Carrageenin.
The observation was effected by measuring, after 3 hours the administration of the Carrageenin, the enlarged volumes of hind paw of the rats.

[3] = system: Kaolin-induced edema; assay: Inhibitory activity on Kaolin-induced Edema in Rats (Experiment B); assay type: in vivo
[4] = system: Dextran-induced edema; assay: Inhibitory activity on dextran-induced edema in rats (Experiment C); assay type: in vivo
Description: Inhibitory activity on dextran-induced edema in rats Experiment was carried out in the manner same as those of the preceding Experiments in which dextran was employed as irritant substance.

## CC(C(=O)O)c1cccc(Oc2ccc(Cl)cc2)c1 (stereo not drawn) [(3), 2-[m-(p-chlorophenoxy)phenyl]propionic acid]
[1]; after 2 hrs, oral 16 mg/kg
  % of Inhibition: 10%
  Edema D. ± S.E.: .613 ± .054
[1]; after 2 hrs, oral 80 mg/kg
  % of Inhibition: 1%
  Edema D. ± S.E.: .672 ± .036
[1]; after 3 hrs, oral 16 mg/kg
  % of Inhibition: 16%
  Edema D. ± S.E.: .599 ± .065
[1]; after 3 hrs, oral 80 mg/kg
  % of Inhibition: 11%
  Edema D. ± S.E.: .634 ± .016
[2]; oral 3.2 mg/kg
  % of Inhibition: 20%
  Edema density ± S.E.: .430 ± .068
[2]; oral 80.0 mg/kg
  % of Inhibition: 38%
  Edema density ± S.E.: .334 ± .055
[3]; after 3 hrs, oral 16 mg/kg
  Edema D. ± S.E.: .418 ± .024
[3]; after 3 hrs, oral 80 mg/kg
  % of Inhibition: 29%
  Edema D. ± S.E.: .297 ± .085
[3]; after 5 hrs, oral 16 mg/kg
  % of Inhibition: 13%
  Edema D. ± S.E.: .491 ± .021
[3]; after 5 hrs, oral 80 mg/kg
  % of Inhibition: 40%
  Edema D. ± S.E.: .340 ± .107
[3]; after 7 hrs, oral 16 mg/kg
  % of Inhibition: 14%
  Edema D. ± S.E.: .524 ± .037
[3]; after 7 hrs, oral 80 mg/kg
  % of Inhibition: 27%
  Edema D. ± S.E.: .442 ± .119
[4]; after 2 hrs, oral 16 mg/kg
  % of Inhibition: 6%
  Edema D. ± S.E.: .782 ± .062
[4]; after 2 hrs, oral 80 mg/kg
  % of Inhibition: 7%
  Edema D. ± S.E.: .776 ± .022
[4]; after 3 hrs, oral 16 mg/kg
  % of Inhibition: 5%
  Edema D. ± S.E.: .713 ± .036
[4]; after 3 hrs, oral 80 mg/kg
  % of Inhibition: 4%
  Edema D. ± S.E.: .723 ± .027

## CC(C(=O)O)c1cccc(Oc2ccc(Cl)cc2)c1 (stereo not drawn) [(4)]
[1]; after 2 hrs, oral 8 mg/kg
  % of Inhibition: 5%
  Edema D. ± S.E.: .649 ± .032
[1]; after 2 hrs, oral 40 mg/kg
  % of Inhibition: 17%
  Edema D. ± S.E.: .563 ± .016
[1]; after 3 hrs, oral 8 mg/kg
  % of Inhibition: 13%
  Edema D. ± S.E.: .621 ± .058
[1]; after 3 hrs, oral 40 mg/kg
  % of Inhibition: 25%
  Edema D. ± S.E.: .535 ± .027
[2]; oral 8.0 mg/kg
  % of Inhibition: 12%
  Edema density ± S.E.: .477 ± .049
[2]; oral 40.0 mg/kg
  % of Inhibition: 46%
  Edema density ± S.E.: .293 ± .056
[3]; after 3 hrs, oral 8 mg/kg
  % of Inhibition: 12%
  Edema D. ± S.E.: .369 ± .048
[3]; after 3 hrs, oral 40 mg/kg
  % of Inhibition: 35%
  Edema D. ± S.E.: .271 ± .075
[3]; after 5 hrs, oral 8 mg/kg
  % of Inhibition: 8%
  Edema D. ± S.E.: .519 ± .035
[3]; after 5 hrs, oral 40 mg/kg
  % of Inhibition: 41%
  Edema D. ± S.E.: .333 ± .073
[3]; after 7 hrs, oral 8 mg/kg
  % of Inhibition: -3%
  Edema D. ± S.E.: .625 ± .040
[3]; after 7 hrs, oral 40 mg/kg
  % of Inhibition: 35%
  Edema D. ± S.E.: .396 ± .072
[4]; after 2 hrs, oral 8 mg/kg
  % of Inhibition: 10%
  Edema D. ± S.E.: .753 ± .052
[4]; after 2 hrs, oral 40 mg/kg
  % of Inhibition: 6%
  Edema D. ± S.E.: .780 ± .033
[4]; after 3 hrs, oral 8 mg/kg
  % of Inhibition: 10%
  Edema D. ± S.E.: .780 ± .033
[4]; after 3 hrs, oral 40 mg/kg
  % of Inhibition: 8%
  Edema D. ± S.E.: .692 ± .048
